The term IC50 denotes the concentration that inhibits the measured activity by half. Lower therefore signals greater potency.

Where only a bound is given, the exact number is not on record here.

In assay [1] the target is T1, Tyrosine-protein kinase ITK/TSK (Homo sapiens) (UniProt Q08881).
T1 sequence (whole entry): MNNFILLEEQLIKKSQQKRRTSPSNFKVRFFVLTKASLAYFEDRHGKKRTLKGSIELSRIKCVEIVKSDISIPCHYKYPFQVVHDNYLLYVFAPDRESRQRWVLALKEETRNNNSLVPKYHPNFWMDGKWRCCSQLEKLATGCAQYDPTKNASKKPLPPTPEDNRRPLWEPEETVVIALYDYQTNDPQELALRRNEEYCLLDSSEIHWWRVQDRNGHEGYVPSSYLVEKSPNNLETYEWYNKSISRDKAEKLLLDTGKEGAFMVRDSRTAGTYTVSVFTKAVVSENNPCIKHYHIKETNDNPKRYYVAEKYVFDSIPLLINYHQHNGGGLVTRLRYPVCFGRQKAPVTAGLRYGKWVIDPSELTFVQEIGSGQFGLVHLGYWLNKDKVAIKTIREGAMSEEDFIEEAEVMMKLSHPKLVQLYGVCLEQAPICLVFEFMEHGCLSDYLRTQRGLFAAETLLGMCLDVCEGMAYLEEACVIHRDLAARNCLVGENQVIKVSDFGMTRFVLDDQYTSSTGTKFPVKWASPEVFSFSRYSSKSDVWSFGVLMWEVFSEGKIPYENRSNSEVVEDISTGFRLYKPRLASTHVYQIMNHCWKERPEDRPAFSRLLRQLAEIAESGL
In words: Selectivity interaction (Kinase panel (Z-LYTE Assay)) EUB0001632a ITK. The note with it: at 10 µM.

The target of assay [2] is Protein kinase C theta type (Homo sapiens, UniProt Q04759). The experiment in a line: Selectivity interaction (KinomeScan (DiscoverX)) EUB0000695a PRKCQ. The following applies: at 100 nM.
Sequence of Protein kinase C theta type (Q04759 whole entry, looked up): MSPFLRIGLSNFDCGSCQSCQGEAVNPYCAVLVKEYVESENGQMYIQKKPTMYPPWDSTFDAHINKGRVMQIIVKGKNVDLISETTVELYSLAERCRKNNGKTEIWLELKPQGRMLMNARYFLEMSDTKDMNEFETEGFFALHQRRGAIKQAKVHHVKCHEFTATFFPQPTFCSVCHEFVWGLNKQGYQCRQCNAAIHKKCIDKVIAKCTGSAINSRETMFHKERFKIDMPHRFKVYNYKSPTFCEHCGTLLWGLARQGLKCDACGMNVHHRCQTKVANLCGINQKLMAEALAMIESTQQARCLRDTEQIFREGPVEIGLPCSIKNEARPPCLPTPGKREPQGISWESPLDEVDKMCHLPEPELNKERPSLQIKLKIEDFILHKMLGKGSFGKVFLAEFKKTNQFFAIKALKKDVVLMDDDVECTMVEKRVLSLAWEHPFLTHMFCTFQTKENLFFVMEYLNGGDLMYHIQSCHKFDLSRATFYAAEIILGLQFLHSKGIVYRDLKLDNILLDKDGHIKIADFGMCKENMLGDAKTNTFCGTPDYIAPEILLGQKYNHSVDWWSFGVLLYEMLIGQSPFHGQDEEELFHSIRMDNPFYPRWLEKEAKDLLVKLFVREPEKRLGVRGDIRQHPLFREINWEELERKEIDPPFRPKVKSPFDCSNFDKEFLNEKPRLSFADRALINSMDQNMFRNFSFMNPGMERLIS
In assay [3] the target is T2, Protein kinase C epsilon type (Homo sapiens) (UniProt Q02156).
T2 sequence (whole entry): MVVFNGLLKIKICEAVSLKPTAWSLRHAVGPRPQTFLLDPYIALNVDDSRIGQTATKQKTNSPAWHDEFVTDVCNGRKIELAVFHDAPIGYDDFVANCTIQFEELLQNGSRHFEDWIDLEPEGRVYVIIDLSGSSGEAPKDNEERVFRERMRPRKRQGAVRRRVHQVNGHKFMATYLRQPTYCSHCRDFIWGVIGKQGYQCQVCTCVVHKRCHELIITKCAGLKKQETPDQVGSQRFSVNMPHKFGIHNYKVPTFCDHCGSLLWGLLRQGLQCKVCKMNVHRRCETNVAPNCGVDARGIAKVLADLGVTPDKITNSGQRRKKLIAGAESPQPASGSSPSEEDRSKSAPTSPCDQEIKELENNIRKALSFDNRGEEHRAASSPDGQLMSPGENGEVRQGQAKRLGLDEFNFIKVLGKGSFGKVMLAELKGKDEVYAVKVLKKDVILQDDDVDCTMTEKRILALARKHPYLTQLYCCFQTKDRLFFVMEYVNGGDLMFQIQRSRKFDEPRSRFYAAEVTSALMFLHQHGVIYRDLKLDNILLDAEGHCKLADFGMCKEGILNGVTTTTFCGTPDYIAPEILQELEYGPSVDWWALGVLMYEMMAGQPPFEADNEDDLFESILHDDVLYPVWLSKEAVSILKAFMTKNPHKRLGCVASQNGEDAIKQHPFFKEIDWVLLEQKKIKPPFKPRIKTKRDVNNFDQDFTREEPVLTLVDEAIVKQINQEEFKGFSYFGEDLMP
The note with it: at 10 µM.

For assay [4], the target named is Serine/threonine-protein kinase N1 (Homo sapiens, UniProt Q16512). The experiment in a line: Selectivity interaction (KinomeScan (DiscoverX)) EUB0001049a PKN1. The following applies: at 1 µM.
Sequence of Serine/threonine-protein kinase N1 (Q16512 2-942 limits assumed): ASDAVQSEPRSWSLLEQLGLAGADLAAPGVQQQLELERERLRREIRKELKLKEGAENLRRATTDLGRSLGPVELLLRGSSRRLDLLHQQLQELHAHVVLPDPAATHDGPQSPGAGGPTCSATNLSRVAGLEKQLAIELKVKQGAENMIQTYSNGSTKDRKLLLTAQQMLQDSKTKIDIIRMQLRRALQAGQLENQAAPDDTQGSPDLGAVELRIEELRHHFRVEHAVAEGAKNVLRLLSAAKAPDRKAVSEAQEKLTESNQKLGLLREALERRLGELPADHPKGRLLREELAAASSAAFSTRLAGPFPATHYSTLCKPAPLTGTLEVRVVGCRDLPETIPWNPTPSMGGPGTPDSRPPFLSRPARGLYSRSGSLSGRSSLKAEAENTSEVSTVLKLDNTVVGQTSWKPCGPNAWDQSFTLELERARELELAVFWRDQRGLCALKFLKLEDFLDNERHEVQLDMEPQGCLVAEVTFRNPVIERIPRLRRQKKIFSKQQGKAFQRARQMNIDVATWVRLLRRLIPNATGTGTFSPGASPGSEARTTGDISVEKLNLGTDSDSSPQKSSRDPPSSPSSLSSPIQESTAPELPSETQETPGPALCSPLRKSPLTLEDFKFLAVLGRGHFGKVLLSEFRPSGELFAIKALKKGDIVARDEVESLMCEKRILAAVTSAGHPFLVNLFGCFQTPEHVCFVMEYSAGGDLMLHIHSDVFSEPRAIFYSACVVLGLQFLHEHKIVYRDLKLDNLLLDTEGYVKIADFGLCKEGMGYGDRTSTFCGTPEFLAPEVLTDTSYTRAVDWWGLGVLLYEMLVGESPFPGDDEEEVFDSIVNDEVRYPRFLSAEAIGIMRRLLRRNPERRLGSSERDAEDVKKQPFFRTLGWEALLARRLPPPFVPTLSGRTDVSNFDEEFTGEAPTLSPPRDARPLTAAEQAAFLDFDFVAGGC
The target in assay [5] is Tyrosine-protein kinase JAK2 (Homo sapiens, UniProt O60674). The experiment in a line: Selectivity interaction (Kinase panel (33PanQinase(R) Activity Assay)) EUB0000877a JAK2.
Sequence of Tyrosine-protein kinase JAK2 (O60674 whole entry): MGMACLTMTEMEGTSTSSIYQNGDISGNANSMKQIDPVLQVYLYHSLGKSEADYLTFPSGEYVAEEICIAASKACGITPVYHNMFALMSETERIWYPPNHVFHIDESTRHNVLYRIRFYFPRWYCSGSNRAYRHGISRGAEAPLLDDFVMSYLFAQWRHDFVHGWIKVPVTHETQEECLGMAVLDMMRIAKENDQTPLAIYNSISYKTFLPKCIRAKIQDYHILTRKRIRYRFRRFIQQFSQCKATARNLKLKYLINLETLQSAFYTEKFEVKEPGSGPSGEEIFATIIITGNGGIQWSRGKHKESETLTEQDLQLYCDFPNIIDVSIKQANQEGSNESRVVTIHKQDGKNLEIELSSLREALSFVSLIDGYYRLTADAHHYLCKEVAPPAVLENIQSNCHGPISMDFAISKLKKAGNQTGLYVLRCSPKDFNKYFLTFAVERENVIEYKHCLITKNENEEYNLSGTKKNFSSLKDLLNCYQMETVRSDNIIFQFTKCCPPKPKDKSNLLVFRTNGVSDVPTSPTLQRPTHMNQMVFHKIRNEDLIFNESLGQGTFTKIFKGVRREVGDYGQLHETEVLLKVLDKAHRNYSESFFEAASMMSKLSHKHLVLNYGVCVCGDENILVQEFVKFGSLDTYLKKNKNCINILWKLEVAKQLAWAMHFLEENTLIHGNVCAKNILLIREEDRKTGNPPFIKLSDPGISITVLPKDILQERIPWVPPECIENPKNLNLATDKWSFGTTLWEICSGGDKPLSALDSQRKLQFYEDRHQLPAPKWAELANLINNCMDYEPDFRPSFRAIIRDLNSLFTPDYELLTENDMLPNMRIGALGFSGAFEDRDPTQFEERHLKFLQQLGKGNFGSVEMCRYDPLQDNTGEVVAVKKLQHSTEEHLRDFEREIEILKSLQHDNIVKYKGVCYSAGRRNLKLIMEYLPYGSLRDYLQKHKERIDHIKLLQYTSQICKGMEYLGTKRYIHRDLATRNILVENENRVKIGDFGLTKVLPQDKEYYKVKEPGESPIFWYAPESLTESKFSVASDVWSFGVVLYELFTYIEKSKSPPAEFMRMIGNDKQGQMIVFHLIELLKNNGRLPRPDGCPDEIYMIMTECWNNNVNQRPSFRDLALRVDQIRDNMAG
The target in assay [6] is 5-hydroxytryptamine receptor 1E (Homo sapiens) (UniProt P28566). The experiment in a line: Selectivity interaction (GPCR panel (PDSP screen)) EUB0001079a HTR1E. The note with it: at 10 µM.
Sequence of 5-hydroxytryptamine receptor 1E (Homo sapiens) (P28566 whole entry): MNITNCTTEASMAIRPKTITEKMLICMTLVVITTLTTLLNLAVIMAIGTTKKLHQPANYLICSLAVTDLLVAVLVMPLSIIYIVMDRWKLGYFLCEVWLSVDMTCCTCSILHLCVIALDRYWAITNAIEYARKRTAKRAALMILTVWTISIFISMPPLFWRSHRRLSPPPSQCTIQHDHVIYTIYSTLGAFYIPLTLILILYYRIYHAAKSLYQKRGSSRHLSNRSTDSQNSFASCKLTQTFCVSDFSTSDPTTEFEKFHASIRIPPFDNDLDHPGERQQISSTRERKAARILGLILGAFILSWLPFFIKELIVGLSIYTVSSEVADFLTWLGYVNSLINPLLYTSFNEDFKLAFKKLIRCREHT
Assay [7] deals with T3, Ephrin type-B receptor 4 (Homo sapiens) (UniProt P54760).
T3 sequence (whole entry): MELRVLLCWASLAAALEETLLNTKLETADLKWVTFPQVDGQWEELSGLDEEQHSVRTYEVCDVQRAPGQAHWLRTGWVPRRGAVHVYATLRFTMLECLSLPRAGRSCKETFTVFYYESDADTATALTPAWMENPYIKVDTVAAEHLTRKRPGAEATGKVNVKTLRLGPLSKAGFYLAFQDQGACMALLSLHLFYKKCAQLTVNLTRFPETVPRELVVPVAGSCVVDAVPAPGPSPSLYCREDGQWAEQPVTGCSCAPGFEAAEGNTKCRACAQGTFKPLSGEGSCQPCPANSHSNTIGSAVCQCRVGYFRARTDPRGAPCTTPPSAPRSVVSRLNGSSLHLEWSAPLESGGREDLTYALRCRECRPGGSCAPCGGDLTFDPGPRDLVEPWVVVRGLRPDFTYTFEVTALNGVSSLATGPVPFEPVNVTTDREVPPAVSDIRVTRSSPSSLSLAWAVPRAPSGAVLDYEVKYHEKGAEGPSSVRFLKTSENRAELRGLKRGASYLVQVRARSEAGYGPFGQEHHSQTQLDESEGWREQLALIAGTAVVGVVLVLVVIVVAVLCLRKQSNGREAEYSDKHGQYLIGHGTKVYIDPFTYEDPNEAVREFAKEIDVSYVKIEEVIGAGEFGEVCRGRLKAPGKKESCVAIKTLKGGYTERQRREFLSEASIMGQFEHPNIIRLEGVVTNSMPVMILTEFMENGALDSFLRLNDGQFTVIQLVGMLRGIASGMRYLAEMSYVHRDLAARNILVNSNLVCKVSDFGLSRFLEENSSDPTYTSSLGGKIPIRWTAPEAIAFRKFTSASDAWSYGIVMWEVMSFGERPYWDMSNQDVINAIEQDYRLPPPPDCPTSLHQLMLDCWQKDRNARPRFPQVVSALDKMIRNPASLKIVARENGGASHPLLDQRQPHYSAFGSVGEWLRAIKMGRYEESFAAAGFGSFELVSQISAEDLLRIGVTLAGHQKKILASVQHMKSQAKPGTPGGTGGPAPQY
The experiment in a line: Selectivity interaction (KinomeScan (DiscoverX)) EUB0000229b EPHB4. The note with it: at 10 µM.

Assay [8] has as its target Cyclin-dependent kinase 14 (Homo sapiens) (UniProt O94921). In words: Selectivity interaction (KinomeScan (DiscoverX)) EUB0000229b CDK14. The note with it: at 10 µM.

Sequence of Cyclin-dependent kinase 14 (Homo sapiens) (O94921 whole entry): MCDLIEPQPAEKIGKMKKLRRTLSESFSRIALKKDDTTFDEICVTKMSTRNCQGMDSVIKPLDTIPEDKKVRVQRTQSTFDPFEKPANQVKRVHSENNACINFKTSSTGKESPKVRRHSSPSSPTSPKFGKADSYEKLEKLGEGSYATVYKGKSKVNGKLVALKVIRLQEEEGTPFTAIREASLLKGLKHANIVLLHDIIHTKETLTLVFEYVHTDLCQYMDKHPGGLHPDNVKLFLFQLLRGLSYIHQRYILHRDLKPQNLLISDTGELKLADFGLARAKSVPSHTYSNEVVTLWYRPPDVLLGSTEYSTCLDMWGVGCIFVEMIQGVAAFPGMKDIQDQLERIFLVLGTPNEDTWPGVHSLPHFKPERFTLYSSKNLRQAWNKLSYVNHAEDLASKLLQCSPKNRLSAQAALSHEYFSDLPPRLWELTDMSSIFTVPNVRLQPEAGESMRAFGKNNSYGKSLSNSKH

For the compound `Cn1cc(-n2cnc3c(NCc4nc5cc(Cl)c(Cl)cc5[nH]4)nc(N4CCOCC4)nc32)cn1`, the % of control in assay [1] is -0.395%. Regarding `Cc1cc(F)c(C(=O)Nc2cccc(-c3nncn3C(C)C)n2)cc1-n1cnc(C2CC2)c1`, the % of control in assay [2] came out at 75%. For the compound `Cc1cc([C@@H](C)Nc2ccccc2C(=O)O)c2nc(N3CCOCC3)cc(=O)n2c1` [AZD-6482], the % of control in assay [3] is 100%. Take `COc1cc(Nc2nc(C)cc(-c3cnn4nc(OC)ccc34)n2)cc(C(F)(F)F)c1`: the % of control in assay [4] was 94%. Regarding `CCC(=O)N1CC[C@H](Nc2ncnc3c2CN(c2cnc(OC)c(C(F)(F)F)c2)CC3)C1` [LENIOLISIB], the IC50 in assay [5] is over 10 µM.

Regarding `Nc1cnc(N2CCc3cc(S(=O)(=O)Nc4c(F)cc(Cl)cc4F)cc(N4CCCC4=O)c32)nc1` [TP-020n], the % of inhibition in assay [6] is -4.55%.

For `COc1cc(N(C)c2ccnc3ccc(C(F)(F)F)cc23)cc(OC)c1OC`, the % binding in assay [7] is 100%; in assay [8], 92%.

Source of the values: ChEMBL document CHEMBL5465560, “Selectivity Literature for EUbOPEN Chemogenomic Library” (2024).
